Each compound was assayed on tau protein (assay: Tau protein in vitro degradation assay (Western blot, Tau-13 antibody)). Details: SK-N-SH cells; 72 hours of incubation; tested at 300 nM, 100 nM, 33 nM and 11 nM; Western blot, Tau-13 antibody.
Type: cell-based, human
How it was run: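 SK-N-SH cells, seeded ≥18 h beforehand, were incubated 72 h with tau PROTACs at 1000, 300 and 100 nM or at 300, 100, 33 and 11 nM. Lysates in protease-inhibitor buffer were resolved by SDS-PAGE; tau quantified by Western blot with Tau-13 antibody recognising all human tau forms.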
`Cn1c2ccncc2c2ccc(-c3ccc(O[C@H]4C[C@@H](Oc5ccc(CCCOC6CN(c7ccc8c(c7)C(=O)N(C7CCC(=O)NC7=O)C8=O)C6)nc5)C4)nc3)cc21` (some centres unmarked) [Compound 160, 2-(2,6-dioxopiperidin-3-yl)-5-(3-(3-(5-((1 s,3s)-3-((5-(5-methyl-5H-pyrido[4,3-b]indol-7-yl)pyridin-2-yl)oxy)cyclobutoxy)pyridin-2-yl)propoxy)azetidin-1-yl)isoindoline-1,3-dione] was tested, and the “Degradation activity* (highest amount of degradation observed at any dosage; tau protein remaining)” value was “B (≤80% and >50% tau protein remaining after 72 hours of incubation with the test compound)”. For `O=C1CCC(N2C(=O)c3ccc(OCCOCC#Cc4ccc(O[C@H]5C[C@H](Oc6ccc(-c7ccc8c(c7)[nH]c7ccncc78)cn6)C5)cc4)cc3C2=O)C(=O)N1` (some centres unmarked) [Compound 188, 5-(2-((3-(4-((1r,3r)-3-((5-(5H-pyrido[4,3-b]indol-7-yl)pyridin-2-yl)oxy)cyclobutoxy)phenyl)prop-2-yn-1-yl)oxy)ethoxy)-2-(2,6-dioxopiperidin-3-yl)isoindoline-1,3-dione], the “Degradation activity (tau protein remaining; highest amount of degradation observed at any dosage)” value was “B (≤80% and >50% tau protein remaining after 72 hours of incubation with the test compound)”. In the case of `Cn1c2ccncc2c2ccc(-c3ccc(OCCCOc4ccc(C#CCOC5CN(c6ccc7c(c6)C(=O)N(C6CCC(=O)NC6=O)C7=O)C5)nc4)nc3)cc21` (centres unmarked) [Compound 167, 2-(2,6-dioxopiperidin-3-yl)-5-(3-((3-(5-(3-((5-(5-methyl-5H-pyrido[4,3-b]indol-7-yl)pyridin-2-yl)oxy)propoxy)pyridin-2-yl)prop-2-yn-1-yl)oxy)azetidin-1-yl)isoindoline-1,3-dione], the “Degradation activity* (highest amount of degradation observed at any dosage; tau protein remaining)” value is reported as “C (>80% tau protein remaining after 72 hours of incubation with the test compound)”. For `Cn1c2ccncc2c2ccc(-c3ccc(O[C@H]4C[C@H](OCCCOCCCOC5CN(c6ccc7c(c6)CN(C6CCC(=O)NC6=O)C7=O)C5)C4)nc3)cc21` (some centres unmarked) [Compound 177, 3-(5-(3-(3-(3-((1r,3r)-3-((5-(5-methyl-5H-pyrido[4,3-b]indol-7-yl)pyridin-2-yl)oxy)cyclobutoxy)propoxy)propoxy)azetidin-1-yl)-1-oxoisoindolin-2-yl)piperidine-2,6-dione], the “Degradation activity (tau protein remaining; highest amount of degradation observed at any dosage)” value was “A (≤50% tau protein remaining after 72 hours of incubation with the test compound)”. `O=C1CCC(N2C(=O)c3cccc(NCCOCCOCCOCCOCCOc4ccc(-c5ccc6c(c5)[nH]c5ccncc56)cc4)c3C2=O)C(=O)N1` (centres unmarked) [Compound 86, 4-((14-(4-(5H-pyrido[4,3-b]indol-7-yl)phenoxy)-3,6,9,12-tetraoxatetradecyl)amino)-2-(2,6-dioxopiperidin-3-yl)isoindoline-1,3-dione] was tested, and the “Degradation activity* (highest amount of degradation observed at any dosage; tau protein remaining)” value was “C (>80% tau protein remaining after 72 hours of incubation with the test compound)”. With `O=C1CCC(N2C(=O)c3ccc(OCCCCCOC4CCN(C(=O)[C@H]5C[C@@H](Oc6ccc(-c7ccc8c(c7)[nH]c7ccncc78)cn6)C5)CC4)cc3C2=O)C(=O)N1` (some centres unmarked) [Compound 166, 5-((5-((1-((1r,3r)-3-((5-(5H-pyrido[4,3-b]indol-7-yl)pyridin-2-yl)oxy)cyclobutane-1-carbonyl)piperidin-4-yl)oxy)pentyl)oxy)-2-(2,6-dioxopiperidin-3-yl)isoindoline-1,3-dione] the “Degradation activity* (highest amount of degradation observed at any dosage; tau protein remaining)” value was “C (>80% tau protein remaining after 72 hours of incubation with the test compound)”. With `Cc1ncsc1-c1ccc(CNC(=O)[C@@H]2C[C@@H](O)CN2C(=O)[C@H](C(C)C)N2Cc3ccccc3C2=O)c(OCCOCCOCCOCCOc2ccc(-c3ccc4c(c3)[nH]c3ccncc34)cn2)c1` [Compound 196, (2S,4R)—N-(2-(2-(2-(2-(2-((5-(5H-pyrido[4,3-b]indol-7-yl)pyridin-2-yl)oxy)ethoxy)ethoxy)ethoxy)ethoxy)-4-(4-methylthiazol-5-yl)benzyl)-4-hydroxy-1-((S)-3-methyl-2-(1-oxoisoindolin-2-yl)butanoyl)pyrrolidine-2-carboxamide] the “Degradation activity (tau protein remaining; highest amount of degradation observed at any dosage)” value was “C (>80% tau protein remaining after 72 hours of incubation with the test compound)”. In the case of `Cn1c2ccncc2c2ccc(-c3ccc(O[C@H]4C[C@H](OCC5(COCCCOC6CN(c7ccc8c(c7)C(=O)N(C7CCC(=O)NC7=O)C8=O)C6)COC5)C4)nc3)cc21` (some centres unmarked) [Compound 169, 2-(2,6-dioxopiperidin-3-yl)-5-(3-(3-((3-(((1r,3r)-3-((5-(5-methyl-5H-pyrido[4,3-b]indol-7-yl)pyridin-2-yl)oxy)cyclobutoxy)methyl)oxetan-3-yl)methoxy)propoxy)azetidin-1-yl)isoindoline-1,3-dione], the “Degradation activity* (highest amount of degradation observed at any dosage; tau protein remaining)” value is reported as “A (≤50% tau protein remaining after 72 hours of incubation with the test compound)”. With `Cn1c2ccncc2c2ccc(-c3ccc(O[C@H]4C[C@H](OCCCCOCCCCOC5CN(c6ccc7c(c6)C(=O)N(C6CCC(=O)NC6=O)C7=O)C5)C4)nc3)cc21` (some centres unmarked) [Compound 162, 2-(2,6-dioxopiperidin-3-yl)-5-(3-(4-(4-((1r,3r)-3-((5-(5-methyl-5H-pyrido[4,3-b]indol-7-yl)pyridin-2-yl)oxy)cyclobutoxy)butoxy)butoxy)azetidin-1-yl)isoindoline-1,3-dione] the “Degradation activity* (highest amount of degradation observed at any dosage; tau protein remaining)” value was “A (≤50% tau protein remaining after 72 hours of incubation with the test compound)”. In the case of `Cn1c2ccncc2c2ccc(-c3cnc(O[C@H]4C[C@H](OC5CCN(CCCCCOc6ccc7c(c6)C(=O)N(C6CCC(=O)NC6=O)C7=O)CC5)C4)c(C(F)(F)F)c3)cc21` (some centres unmarked) [Compound 123, 2-(2,6-dioxopiperidin-3-yl)-5-((5-(4-((1r,3r)-3-((5-(5-methyl-5H-pyrido[4,3-b]indol-7-yl)-3-(trifluoromethyl)pyridin-2-yl)oxy)cyclobutoxy)piperidin-1-yl)pentyl)oxy)isoindoline-1,3-dione], the “Degradation activity* (highest amount of degradation observed at any dosage; tau protein remaining)” value is reported as “C (>80% tau protein remaining after 72 hours of incubation with the test compound)”. `Cn1c2ccncc2c2ccc(-c3ccc(O[C@H]4C[C@H](OCCCCCCCCN5CCN(c6ccc7c(c6)C(=O)N(C6CCC(=O)NC6=O)C7=O)CC5)C4)nc3)cc21` (some centres unmarked) [Compound 91, 2-(2,6-dioxopiperidin-3-yl)-5-(4-(8-((1r,3r)-3-((5-(5-methyl-5H-pyrido[4,3-b]indol-7-yl)pyridin-2-yl)oxy)cyclobutoxy)octyl)piperazin-1-yl)isoindoline-1,3-dione] was tested, and the “Degradation activity* (highest amount of degradation observed at any dosage; tau protein remaining)” value was “C (>80% tau protein remaining after 72 hours of incubation with the test compound)”. `Cc1ncsc1-c1ccc(CNC(=O)[C@@H]2C[C@@H](O)CN2C(=O)[C@H](C(C)C)N2Cc3ccccc3C2=O)c(OCCOCCOc2ccc(-c3ccc4c(c3)[nH]c3ccncc34)cn2)c1` [Compound 186, (2S,4R)—N-(2-(2-(2-((5-(5H-pyrido[4,3-b]indol-7-yl)pyridin-2-yl)oxy)ethoxy)ethoxy)-4-(4-methylthiazol-5-yl)benzyl)-4-hydroxy-1-((S)-3-methyl-2-(1-oxoisoindolin-2-yl)butanoyl)pyrrolidine-2-carboxamide] was tested, and the “Degradation activity (tau protein remaining; highest amount of degradation observed at any dosage)” value was “B (≤80% and >50% tau protein remaining after 72 hours of incubation with the test compound)”. `Cn1c2ccncc2c2ccc(-c3ccc(O[C@H]4C[C@H](OCCCCCN5CCN(c6ccc7c(c6)C(=O)N(C6CCC(=O)NC6=O)C7=O)CC5)C4)nc3)cc21` (some centres unmarked) [Compound 68, 2-(2,6-dioxopiperidin-3-yl)-5-(4-(5-((1r,3r)-3-((5-(5-methyl-5H-pyrido[4,3-b]indol-7-yl)pyridin-2-yl)oxy)cyclobutoxy)pentyl)piperazin-1-yl)isoindoline-1,3-dione] was tested, and the “Degradation activity* (highest amount of degradation observed at any dosage; tau protein remaining)” value was “C (>80% tau protein remaining after 72 hours of incubation with the test compound)”. In the case of `O=C1CCC(N2C(=O)c3c(F)c(F)c(OCCOCCOCCOCCOCCOc4ccc(-c5ccc6c(c5)[nH]c5ccncc56)cn4)c(F)c3C2=O)C(=O)N1` (centres unmarked) [Compound 72, 5-((14-((5-(5H-pyrido[4,3-b]indol-7-yl)pyridin-2-yl)oxy)-3,6,9,12-tetraoxatetradecyl)oxy)-2-(2,6-dioxopiperidin-3-yl)-4,6,7-trifluoroisoindoline-1,3-dione], the “Degradation activity* (highest amount of degradation observed at any dosage; tau protein remaining)” value is reported as “C (>80% tau protein remaining after 72 hours of incubation with the test compound)”.

Same assay, conditions: SK-N-SH cells; 72 hours of incubation; tested at 1000 nM, 300 nM and 100 nM
`O=C1CCC(N2C(=O)c3cccc(NCCOCCOCCOCCOc4ccc(-c5ccc6c(c5)[nH]c5ccncc56)cn4)c3C2=O)C(=O)N1` (centres unmarked) [Compound 2, 4-(2-(2-(2-(2-(5-(5H-pyrido[4,3-b]indol-7-yl)pyridin-2-yloxy)ethoxy)ethoxy)ethoxy)ethylamino)-2-(2,6-dioxopiperidin-3-yl)isoindoline-1,3-dione] was tested, and the “Activity* (highest amount of degradation observed at any dosage, as tau protein remaining)” value was “A (≤50% tau protein remaining after 72 hours of incubation with the test compound)”. With `Cc1ncsc1-c1ccc(CNC(=O)[C@@H]2C[C@@H](O)CN2C(=O)[C@@H](NC(=O)COCCCCCOc2ccc3nc(-c4ccc(N(C)C)cc4)ccc3c2)C(C)(C)C)cc1` [Compound 37, (2S,4R)-1-((S)-2-(2-(5-(2-(4-(dimethylamino)phenyl)quinolin-6-yloxy)pentyloxy)acetamido)-3,3-dimethylbutanoyl)-4-hydroxy-N-(4-(4-methylthiazol-5-yl)benzyl)pyrrolidine-2-carboxamide] the “Activity* (highest amount of degradation observed at any dosage, as tau protein remaining)” value was “C (>80% tau protein remaining after 72 hours of incubation with the test compound)”. `Cc1ncsc1-c1ccc(CNC(=O)[C@@H]2C[C@@H](O)CN2C(=O)[C@@H](NC(=O)COCCOCCOCCOc2ccc(-c3ccc4c(c3)[nH]c3ccncc34)cn2)C(C)(C)C)cc1` [Compound 1, (2S,4R)-1-((S)-14-(5-(5H-pyrido[4,3-b]indol-7-yl)pyridin-2-yloxy)-2-tert-butyl-4-oxo-6,9,12-trioxa-3-azatetradecane)-4-hydroxy-N-(4-(4-methylthiazol-5-yl)benzyl)pyrrolidine-2-carboxamide] was tested, and the “Activity* (highest amount of degradation observed at any dosage, as tau protein remaining)” value was “C (>80% tau protein remaining after 72 hours of incubation with the test compound)”.

Reference: US11458123B2 (Arvinas, Inc., priority 2016, dated 2022)
